Assay [1] relates to MGMT. The assay can be described thus: MGMT protein expression (SDS-PAGE, western blotting) in 8901. Type of assay: cell-based. As to conditions: as concentration increased, treated 3 to 48 hours, FIG. 4. As to the method:
(§1) Brain cancer cell lines 8901 and GBM22-TMZ with temozolomide-resistance were cultured in a petri dish with a diameter of 10 cm, respectively. A PBS solution was used to rinse the cells after the cell proliferation reached to 60% by volume of the dish. (Z)-butylidenephthalide or (E)-butylidenephthalide was added to treat the cells for 3 to 48 hours, and then the cells were collected. The total RNA of the cells was extracted and reverse transcribed into cDNA (using 50 micro-mole of […] and 50 pico-mole of random hexamers primer). One unit of ExTaq DNA polymerase, 200 nM dNTP (1 μL), and 2.5 mM of MgCl2 (1 μL) were added, and then 20 mM of MGMT nucleotide primers (1 μL each) and 50 μL of water were added.
(§2) In another aspect, the intracellular proteins of the aforesaid brain cancer cell lines 8901 and GBM22-TMZ were collected. SDS-PAGE and western blotting were used to analyze the expression of the MGMT protein in the brain cancer cell lines.
Background: In western blotting, separated proteins are transferred to a membrane and probed.

For assay [2], the system named is brain cancer cell line DBTRG. The assay can be described thus: MTT cell viability assay, DBTRG. Type of assay: cell-based. As to conditions: for viability at 500 µM: Concentration 500 μM; for pIC50: 48 h, read-out: IC50 value. On the procedure: (§3) The MTT (3-[4,5-dimethylthiahiazo-2-yl]-2,4-dipheny-tetrazolium bromide) cell viability assay was used to study the mortality effect of temozolomide to various brain cancer cell lines. (See Pauwels et al., J. Virol. Methods, 1988, 20, 309-321 for the MTT cell viability assay, which is incorporated hereinto by reference).
The cell viability rate and mortality rate were calculated based on the absorbance.
(Tetrazolium dyes change colour on reduction, which living cells bring about.)

The subject of assay [3] is MGMT. The assay can be described thus: MGMT RNA expression (RT-PCR, gel electrophoresis) in 8901. Type of assay: cell-based. As to conditions: as concentration increased, treated 3 to 48 hours, FIG. 3. As to the method:
as §1
The sample was placed into a polymerase chain reaction (PCR) system (GeneAmp PCR System 2400, Perkin Elmer, USA). The condition was set as: denaturing, 94° C., 30 s; annealing, 55° C., 30 s; extension, […]; 30 cycles; and finally 72° C., 10 minutes. Afterwards, the system temperature was decreased to 4° C. to terminate the reaction. The product from the PCR was analysed by a 1.5% gel electrophoresis. The gel was analysed by Fluoro-Chem imaging system (Alpha InnoTech Cooperation) to determine the expression level of MGMT gene.

Assay [4] deals with brain cancer cell line GBM22-TMZ. The assay can be described thus: In vivo survival analysis, glioblastoma orthotopic xenografts. Details: species or system Mice. As to the method:
A survival analysis was carried out to investigate the antiglioma effect of the combination of (Z)-butylidenephthalide and temozolomide in vivo. Mice with established glioblastoma orthotopic xenografts from brain cancer cell line GBM22-TMZ were randomized to carry out the therapy with indicated temozolomide (66 mg/kg/day; 5 days), (Z)-butylidenephthalide (50 or 100 mg/kg/day; 5 days), or combinations thereof. Observation was recorded until the mice reached a moribund state, and survival results are shown as Kaplan-Meier survival curves.

The subject of assay [5] is brain cancer cell line 8401. The assay can be described thus: MTT cell viability assay, 8401. Type of assay: cell-based.
Text: as §3

For assay [6], the system named is brain cancer cell line 8901. The assay can be described thus: MTT cell viability assay, 8901 (with CalcuSyn combination index). The format is cell-based. Particulars: for pIC50: 48 h, single agent, cultured 2 days, MTT.
Text: as §3

Assay [7] concerns MGMT. The assay can be described thus: MGMT protein expression (SDS-PAGE, western blotting) in GBM22-TMZ. As to conditions: as concentration increased, FIG. 5. Type of assay: cell-based, human. On the procedure: as §1, §2
Assay [8] concerns brain cancer cell line GBM22-TMZ. The assay is described as follows: MTT cell viability assay, GBM22-TMZ (with CalcuSyn combination index). Particulars: Homo sapiens, 48 h.
Assay [9] has the same test system. The assay is described as follows: In vivo subcutaneous tumor transplant test. More on the design: species or system Balb/c nude mice. Particulars: 28th day. As to the method: An in vivo test was carried out by a subcutaneous tumor transplant mode to observe the anti-tumor activity of (Z)-butylidenephthalide, temozolomide, or their combination in vivo.
First, 2×10^6 cells of brain cancer cell line GBM22-TMZ with temozolomide-resistance were cultured sterilely and subcutaneously injected to Balb/c nude mice (purchased from the National Laboratory Animal Center, Taiwan) to carry out the in vivo tumor transplant experiment. When the tumor was grown to 100 mm^3 (length×width×width/2), the subcutaneous administration was carried out for treatment. On the contralateral side of the tumor tissue, at a position more than 1.5 cm, (Z)-butylidenephthalide was injected, or temozolomide was orally administrated, once per day consecutively for 5 days. In the treatment group in which (Z)-butylidenephthalide and temozolomide were administrated in combination, (Z)-butylidenephthalide was first subcutaneously administrated (SC), and 2 hours later, temozolomide was orally administrated (PO). After administration on the 5th day, the tumor size and the body weight of the mice were observed continuously for 28 days, and were measured every 3 days. The measurement value of the tumor size on the 28th day was used as the assessment result of the inhibiting activity on tumor growth. The smaller the value, the better the inhibition effect. […] There was a significant difference when P value was less than […]. The results are shown in Table 7, and FIGS. 11A and 11B.

Assay [10] deals with brain cancer cell line G5T/VGH. The assay can be described thus: MTT cell viability assay, G5T/VGH. Type of assay: cell-based.
Text: as §3

The mark [11] stands for this setting: read-out: Viability rate of DBTRG(%).
[12] abbreviates: 48 h, single agent, cultured 2 days, MTT.

pIC50: −log10 of the molar value. Where two headings read alike, the source gives them in different places.

For `CCC/C=C1/OC(=O)c2ccccc21` [(E)-butylidenephthalide, reference compound], the “expression of proteins of MGMT” value in assay [1] is given as “no significant changes”. For the same compound, in assay [2] (setting [11]), the viability at 500 µM amounted to 88%. Besides, the viability at 1500 µM in assay [2] (Concentration 1500 μM, read-out: Viability rate of DBTRG(%)) came out at 81%. Moreover, the viability at 2500 µM in [2] (Concentration 2500 μM, read-out: Viability rate of DBTRG(%)) is 70%. The “killing of brain cancer cells” value in assay [2] (DBTRG, high dosage of 2500 μM) is listed as “cannot kill brain cancer cells effectively”. For the same compound, in assay [3], the “expression of RNA of MGMT” value is on record as “no significant changes”.

Regarding `CCC/C=C1\OC(=O)c2ccccc21` [(Z)-butylidenephthalide], the “expression of proteins of MGMT” value in [1] and in [7] was “reduced” throughout. Further, the Survival rate in assay [4] ((Z)-butylidenephthalide (50 mg/kg), Day 0) turned out to be 100%; in assay [4] ((Z)-butylidenephthalide (50 mg/kg), Day 5) it was 100%; in [4] ((Z)-butylidenephthalide (50 mg/kg), Day 8), 100%; in assay [4] ((Z)-butylidenephthalide (50 mg/kg), Day 11), 100%; in [4] ((Z)-butylidenephthalide (50 mg/kg), Day 14), 100%; in assay [4] ((Z)-butylidenephthalide (50 mg/kg), Day 18) it was 100%. Besides, the Survival rate was 66% in assay [4] ((Z)-butylidenephthalide (50 mg/kg), Day 21); 0% in [4] ((Z)-butylidenephthalide (50 mg/kg), Day 28); 0% in assay [4] ((Z)-butylidenephthalide (50 mg/kg), Day 30); 100% in assay [4] ((Z)-butylidenephthalide (100 mg/kg), Day 0); 100% in assay [4] ((Z)-butylidenephthalide (100 mg/kg), Day 5); 100% in assay [4] ((Z)-butylidenephthalide (100 mg/kg), Day 8). The Survival rate worked out at 100% in [4] ((Z)-butylidenephthalide (100 mg/kg), Day 11); 100% in assay [4] ((Z)-butylidenephthalide (100 mg/kg), Day 14); 100% in assay [4] ((Z)-butylidenephthalide (100 mg/kg), Day 18); 66% in assay [4] ((Z)-butylidenephthalide (100 mg/kg), Day 21); 0% in assay [4] ((Z)-butylidenephthalide (100 mg/kg), Day 28); 0% in assay [4] ((Z)-butylidenephthalide (100 mg/kg), Day 30). Moreover, the values for the pIC50 in assay [2], in [6] and in assay [8] were approximately 3.60, 3.66 and 3.35, respectively. For the same compound, the viability at 125 µM in [2] (Concentration 125 μM, read-out: Viability rate of DBTRG(%)) was 80%. In addition, the viability at 250 µM in assay [2] (Concentration 250 μM, read-out: Viability rate of DBTRG(%)) was 58%. Also, in [2] (setting [11]), the viability at 500 µM came to 30%. In addition, the “growth inhibition of brain cancer cell line” value is listed as “effectively inhibit the growth” in [2] (DBTRG, 0 to 400 μM, FIG. 10); “effectively inhibit the growth” in [5] (0 to 400 μM, FIG. 10); “effectively inhibit the growth” in [6] (0 to 400 μM, FIG. 10); “effectively inhibit the growth” in assay [10] (0 to 400 μM, FIG. 10). The “expression of RNA of MGMT” value in [3] is given as “reduced”. The “Relative tumor size (fold)” value in [9] (SC consecutively for 5 days, 50 mg/kg/day) amounted to 2.7 fold; in assay [9] (SC consecutively for 5 days, 100 mg/kg/day) it was 2.6 fold.

As for `Cn1nnc2c(C(N)=O)ncn2c1=O` [temozolomide], the Survival rate in [4] (temozolomide (66 mg/kg), Day 0) worked out at 100%; in assay [4] (temozolomide (66 mg/kg), Day 5), 100%; in assay [4] (temozolomide (66 mg/kg), Day 8) it was 100%; in assay [4] (temozolomide (66 mg/kg), Day 11) it was 66%; in [4] (temozolomide (66 mg/kg), Day 14), 66%; in assay [4] (temozolomide (66 mg/kg), Day 18) it was 66%. Moreover, the Survival rate in assay [4] (temozolomide (66 mg/kg), Day 21) was determined as 33%; in assay [4] (temozolomide (66 mg/kg), Day 28), 0%; in assay [4] (temozolomide (66 mg/kg), Day 30) it was 0%. In addition, the pIC50 in assay [2] (DBTRG, single agent, cultured 2 days, MTT) was 2.78; in assay [5] (setting [12]), 3.08; in assay [6], 2.92; in [8], less than 2.49; in [10] (setting [12]) it was 2.78. For the same compound, in [9] (PO consecutively for 5 days, 66 mg/kg/day), the “Relative tumor size (fold)” value was found to be 4.3 fold.

The term viability denotes the share of living cells, or the viability signal relative to a control. Usually pIC50 stands for the IC50 on a negative log10 scale, so that one unit is a factor of ten.
